Columns and labels:
[1] = test system: platelet-activating factor (PAF); assay: Platelet aggregation assay (PAF-induced aggregation, human platelet-rich plasma); assay type: cell-based; conditions: PAF-induced aggregation of human platelets, in vitro, read-out: PAF Antagonism (in vitro) IC50
Procedure: Platelet-activating factor (PAF) causes aggregation of platelets by a receptor-mediated mechanism. Therefore, PAF-induced platelet aggregation provides a simple and convenient assay to screen compounds for PAF antagonism. Human blood (50 mL) was collected from healthy male donors in an anticoagulant solution (5 mL) containing sodium citrate (3.8%) and dextrose (2%). Blood was centrifuged at 110×g for 15 min. and the supernatant platelet-rich plasma (PRP) carefully transferred into a polypropylene tube. Platelet-poor-plasma (PPP) was prepared by centrifuging PRP at 12,000×g for 2 min. (Beckman Microfuge B). PRP was used within 3 hr. of drawing the blood. PAF was dissolved in chloroform:methanol (1:1, v/v) at a concentration of 2 mg/mL and stored at -70° C. An aliquot of this solution was transferred to a polypropylene tube and dried under a flow of nitrogen gas. To the dried sample was added Hepes-saline-BSA (BSA=bovine serum albumen) buffer (25 mM Hepes, pH 7.4, […], 0.7 mM MgCl2 and 0.1% BSA) to obtain a 1 mM solution and sonicated for 5 min. in a bath sonicator. This stock solution was further diluted to appropriate concentrations in Hepes-saline-BSA buffer. Collagen (Sigma) and adenosine diphosphate (ADP) (Sigma) were purchased as solutions. Test compounds were initially dissolved in dimethyl sulfoxide (DMSO) at a concentration of 50 mM and then further diluted in Hepes-saline-BSA buffer to achieve appropriate concentrations.
When an aggregating agent such as PAF is added to PRP, platelets aggregate. An aggregometer quantifies this aggregation by measuring and comparing light (infra-red) transmission through PPP and PRP. Aggregation assays were performed using a dual-channel aggregometer (Model 440, Chrono-Log Corp., Havertown, Pa.). PRP (0.45 mL) in aggregometer cuvettes was continually stirred (37° C.). Solutions (50 μL) of test compounds or vehicle were added to the PRP and, after incubation for 2 min., 10-15 μl aliquots of PAF solution were added to achieve a final concentration of 1-5×10^-8 M. In different experiments the aggregatory response was kept within a set limit by varying the concentration of PAF. Incubations were continued until the increase in light transmission reached a maximum (usually 2 min.). This increase in light transmission reflecting platlet aggregation is transmitted to a computer by the Chrono-Log model 810 AGGRO/LINK interface. The AGGRO/LINK calculates the slope of transmission change, thus providing the rate of aggregation. Values for inhibition were calculated by comparing rates of aggregation obtained in the absence and the presence of the compound. For each experiment, a standard PAF antagonist such as 8-chloro-6,11-dihydro-11-(1-acetyl-4-piperidylidene)-5H-benzo[5,6]cyclohepta[1,2-b]pyridine was used as a positive control.
Compounds that inhibit PAF-induced aggregation were tested against several other aggregating agents including collagen (0.2 mg/mL) and ADP (2 μM). Compounds showing no activity against these latter agents were considered to be specific PAF antagonists.

Histamine = assay: Histamine-induced bronchospasm in guinea pigs (in vivo, oral); design: species or system guinea pig; conditions: for effect on the histamine response, compared with the PAF response: both responses at similar doses, in words; for Agonist Bronchospasm (in vivo)-Oral, Histamine, Inhibition: 2 hours after dose, histamine 10 ug/kg i.v.
PAF = assay: PAF-induced bronchospasm in guinea pigs (in vivo, oral); design: species or system guinea pig; conditions: for effect on the PAF response, compared with the histamine response: both responses at similar doses, in words; for Agonist Bronchospasm (in vivo)-Oral, PAF, Inhibition: 2 hours after dose, PAF 0.4 μg/kg i.v.

| SMILES | IC50 [1] | effect on the histamine response, compared with the PAF response (Histamine) | Agonist Bronchospasm (in vivo)-Oral, Histamine, Inhibition (Histamine; 3 mg/kg) | effect on the PAF response, compared with the histamine response (PAF) | Agonist Bronchospasm (in vivo)-Oral, PAF, Inhibition (PAF; 5 mg/kg) | Agonist Bronchospasm (in vivo)-Oral, PAF, Inhibition (PAF; 1 mg/kg) | Agonist Bronchospasm (in vivo)-Oral, PAF, Inhibition (PAF; 3 mg/kg) | Agonist Bronchospasm (in vivo)-Oral, Histamine, Inhibition (Histamine; 10 mg/kg) |
| --- | --- | --- | --- | --- | --- | --- | --- | --- |
| CC(=O)N1CCC(=C2c3ccc(Cl)cc3CCc3cccnc32)CC1 [Compound 1] | 600 nM | there is an effect on both responses at similar doses | 49% | there is an effect on both responses at similar doses | 49% |  |  |  |
| O=C(c1cc[n+]([O-])cc1)N1CCN(C2c3ccc(Cl)cc3OCc3cccnc32)CC1 (stereo not shown) [Compound 4] | 200 nM |  | 5% |  |  | 68% |  |  |
| O=C(c1cc[n+]([O-])cc1)N1CCC(=C2c3ccc(Cl)cc3CCc3cccnc32)CC1 [Compound 2] | 200 nM | there is an effect on both responses at similar doses | 37% | there is an effect on both responses at similar doses |  |  | 93% |  |
| O=C(c1cc[n+]([O-])cc1)N1CCC(=C2c3ccc(Cl)cc3SCc3cccnc32)CC1 [Compound 3] | 40 nM |  |  |  |  | 91% |  | 9% |
| O=C(c1cc[n+]([O-])cc1)N1CCN(C2c3ccc(Cl)cc3SCc3cccnc32)CC1 (stereo not shown) [Compound 5] | 300 nM |  |  |  |  | 38% |  | 9% |

Source: patent US5430032A, “Benzopyrido piperidylidene compounds, compositions, methods of manufacture and methods of use” (Schering Corporation, priority 1994, dated 1995)
